Results published in US8742116B2, “Cycloalkylamine substituted isoquinolone derivatives” (Sanofi, priority 2006, dated 2014).
pIC50: −log10 of the molar value.

target: T1, Active human recombinant ROCK II (N-terminal His6-tagged recombinant human ROCK-II residues 11-552) (Homo sapiens, UniProt O75116); assay: Determination of Rho Kinase Inhibition (Caliper peptide phosphorylation assay); assay type: biochemical; conditions: Fluorescein-AKRRRLSSLRA-COOH substrate and ATP, 60 min incubation at 32° C., respective form (salt or free base) obtained as in the examples
T1 construct: recombinant human ROCK-II residues 11-552; His6 (N); purchased Upstate Ltd., Dundee, UK
Experimental: Determination of Rho Kinase Inhibition
To measure Rho-kinase inhibition, IC50 values were determined according to the following protocol:
Active human recombinant ROCK II (N-terminal His6-tagged recombinant human ROCK-II residues 11-552) was purchased from Upstate Ltd., Dundee, UK. The peptide substrate, Fluorescein-AKRRRLSSLRA-COOH, was obtained from JPT Peptide Technologies, Berlin, Germany. Adenosine-5′-triphosphate (ATP), bovine serum albumine (BSA), dimethylsulphoxide (DMSO), 4-(2-hydroxyethyl)piperazine-1-ethanesulfonic acid (Hepes), Brij-35 and dithiothreitol (DTT) were purchased from Sigma-Aldrich, Munich, Germany. Tris(hydroxymethyl)-aminomethane (Tris), magnesium chloride, NaOH, 1 M HCl and EDTA were obtained from Merck Biosciences, Darmstadt, Germany. “Complete” protease inhibitor was from Roche Diagnostics, Mannheim, Germany.
Test compounds were diluted to the appropriate concentrations in buffer 1 (25 mM Tris-HCl, pH 7.4, 5 mM MgCl2, 2 mM DTT, 0.02% (w/v) BSA and 3% DMSO). The ROCK II enzyme was diluted to a concentration of 100 ng/ml in buffer 2 (25 mM Tris-HCl, pH 7.4, 5 mM MgCl2, 2 mM DTT and 0.02% (w/v) BSA). The peptide substrate and ATP were diluted to concentrations of 3 μM and 120 μM, respectively, in the buffer 2. 2 μl of the compound solution were mixed with 2 μl of the diluted enzyme in a 384-well small volume microtiter plate (Greiner, Bio-One, Frickenhausen, Germany), and the kinase reaction was initiated by addition of 2 μl of the solution containing peptide substrate and ATP. After 60 min incubation at 32° C., the reaction was stopped by addition of 20 μl of a solution containing 100 mM Hepes-NaOH, pH 7.4, 0.015% (v/v) Brij-35, 45 mM EDTA and 0.227% chip coating reagent 1 (Caliper Lifescience Inc, Hopkinton, Mass.). Phosphorylation of the substrate peptide was then detected on a Caliper 3000 instrument essentially as described by Pommereau et al. (J. Biomol. Screening 2004, 9(5), 409-416). Separation conditions were as follows: Pressure—1.3 psi, upstream voltage—1562 V, downstream voltage—500 V, sample sip time 200 ms. Positive controls (buffer 1 instead of compound) and negative controls (buffer 1 instead of compound and buffer 2 instead of ROCK II) were run in parallel on each plate.
The following products/compounds were tested in said assay by using the respective form (salt or free base) obtained as in the examples described above and the following activities were measured.

T1 sequence (O75116 11-552): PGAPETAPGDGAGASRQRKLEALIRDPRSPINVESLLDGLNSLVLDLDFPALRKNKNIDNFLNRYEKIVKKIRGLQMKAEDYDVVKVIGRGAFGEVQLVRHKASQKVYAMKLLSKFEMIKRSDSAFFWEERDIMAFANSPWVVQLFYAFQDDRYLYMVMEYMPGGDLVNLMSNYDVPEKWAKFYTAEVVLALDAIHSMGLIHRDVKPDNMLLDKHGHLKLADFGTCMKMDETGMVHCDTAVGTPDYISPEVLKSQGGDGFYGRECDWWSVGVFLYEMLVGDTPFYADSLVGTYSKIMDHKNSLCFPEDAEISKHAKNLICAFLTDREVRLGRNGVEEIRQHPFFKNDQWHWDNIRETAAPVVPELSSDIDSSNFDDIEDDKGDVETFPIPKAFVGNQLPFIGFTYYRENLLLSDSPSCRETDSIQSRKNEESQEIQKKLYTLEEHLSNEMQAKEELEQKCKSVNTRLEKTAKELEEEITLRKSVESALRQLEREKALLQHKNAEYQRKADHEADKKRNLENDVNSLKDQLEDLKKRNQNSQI

`O=c1[nH]ccc2cc(O[C@H]3CC[C@H](N4CCCC4)CC3)c(Cl)cc12` [Compound 19, 7-Chloro-6-(4-pyrrolidin-1-yl-cyclohexyloxy)-2H-isoquinolin-1-one] and `O=c1[nH]ccc2cc(O[C@H]3CC[C@@H](N4CCCC4)CC3)c(Cl)cc12` [Compound 20, 7-Chloro-6-(4-pyrrolidin-1-yl-cyclohexyloxy)-2H-isoquinolin-1-one] cannot be ordered by pIC50: no less than 6.00 for the first, no less than 6.00 for the second.

`O=c1[nH]ccc2cc(OC3CCC(N4CCCCC4)CC3)c(Cl)cc12` (mixture of isomers) [Compound 16, 7-Chloro-6-(4-piperidin-1-yl-cyclohexyloxy)-2H-isoquinolin-1-one] and `O=c1[nH]ccc2cc(OC3CCC(N4CCOCC4)CC3)c(Cl)cc12` (mixture of isomers) [Compound 18, 7-Chloro-6-(4-morpholin-4-yl-cyclohexyloxy)-2H-isoquinolin-1-one] cannot be ordered by pIC50: no less than 6.00 for the first, no less than 6.00 for the second.

`Cc1cc2c(=O)[nH]ccc2cc1O[C@@H]1CCC[C@H](N)CC1` (relative stereo) [Compound 47, 6-(cis-4-Amino-cycloheptyloxy)-7-methyl-2H-isoquinolin-1-one] and `N[C@H]1CCC[C@@H](Oc2cc3cc[nH]c(=O)c3cc2Cl)CC1` (relative stereo) [Compound 48, 7-Chloro-6-(cis-4-Amino-cycloheptyloxy)-2H-isoquinolin-1-one] cannot be ordered by pIC50: no less than 6.00 for the first, no less than 6.00 for the second.

`NC1CC(Oc2cc3cc[nH]c(=O)c3cc2Cl)C1` (mixture of isomers) [Compound 54, 6-(3-Amino-cyclobutoxy)-7-chloro-2H-isoquinolin-1-one] and `N[C@H]1CC[C@H](Oc2cc3cc[nH]c(=O)c3cc2Cl)C1` [Compound 44, 6-((1S,3S)-3-Amino-cyclopentyloxy)-7-chloro-2H-isoquinolin-1-one] cannot be ordered by pIC50: no less than 6.00 for the first, no less than 6.00 for the second.

`O=c1[nH]ccc2cc(O[C@H]3CC[C@H](N4CCOCC4)CC3)c(Cl)cc12` [Compound 17, 7-Chloro-6-(4-morpholin-4-yl-cyclohexyloxy)-2H-isoquinolin-1-one] and `CN1CCN([C@H]2CC[C@H](Oc3cc4cc[nH]c(=O)c4cc3Cl)CC2)CC1` [Compound 21, 7-Chloro-6-[4-(4-methyl-piperazin-1-yl)-cyclohexyloxy]-2H-isoquinolin-1-one] cannot be ordered by pIC50: no less than 6.00 for the first, no less than 6.00 for the second.

`N[C@@H]1CC[C@H](Oc2ccc3c(=O)[nH]ccc3c2)C1` [Compound 45, 6-((1S,3R)-3-Amino-cyclopentyloxy)-2H-isoquinolin-1-one] and `N[C@H]1C[C@H](COc2cc3cc[nH]c(=O)c3cc2Cl)C1` [Compound 56, trans-6-(3-Amino-cyclobutylmethoxy)-7-chloro-2H-isoquinolin-1-one] cannot be ordered by pIC50: no less than 6.00 for the first, no less than 6.00 for the second.

`CN1CCN([C@H]2CC[C@@H](Oc3cc4cc[nH]c(=O)c4cc3Cl)CC2)CC1` [Compound 22, 7-Chloro-6-[4-(4-methyl-piperazin-1-yl)-cyclohexyloxy]-2H-isoquinolin-1-one] and `NC(=O)C1CCN(C2CCC(Oc3cc4cc[nH]c(=O)c4cc3Cl)CC2)CC1` (mixture of isomers) [Compound 15, 1-[4-(7-Chloro-1-oxo-1,2-dihydro-isoquinolin-6-yloxy)-cyclohexyl]-piperidine-4-carboxylic acid amide] cannot be ordered by pIC50: no less than 6.00 for the first, no less than 6.00 for the second.

`O=C(CC1CCNCC1)N[C@H]1CC[C@@H](Oc2cc3cc[nH]c(=O)c3cc2Cl)CC1` [Compound 31, N-[4-(7-Chloro-1-oxo-1,2-dihydro-isoquinolin-6-yloxy)-cis-cyclohexyl]-2-piperidin-4-yl-acetamide] and `O=C(CCC1CCNCC1)N[C@H]1CC[C@@H](Oc2cc3cc[nH]c(=O)c3cc2Cl)CC1` [Compound 30, N-[4-(7-Chloro-1-oxo-1,2-dihydro-isoquinolin-6-yloxy)-cis-cyclohexyl]-3-piperidin-4-yl-propionamide] cannot be ordered by pIC50: no less than 6.00 for the first, no less than 6.00 for the second.

`CCC[C@]1(N)CCC[C@@H](Oc2cc3cc[nH]c(=O)c3cc2Cl)CCC1` (single isomer, unassigned) [Compound 66, 6-(cis-5-Amino-5-propyl-cyclooctyloxy)-7-chloro-2H-isoquinolin-1-one] and `CCC[C@]1(N)CCC[C@H](Oc2cc3cc[nH]c(=O)c3cc2Cl)CCC1` (single isomer, unassigned) [Compound 67, 6-(trans-5-amino-5-propyl-cyclooctyloxy)-7-chloro-2H-isoquinolin-1-one] cannot be ordered by pIC50: no less than 6.00 for the first, no less than 6.00 for the second.

`O=C(O)CN[C@H]1CC[C@@H](Oc2cc3cc[nH]c(=O)c3cc2Cl)CC1` [Compound 24, [4-(7-Chloro-1-oxo-1,2-dihydro-isoquinolin-6-yloxy)-cis-cyclohexylamino]-acetic acid] and `Cc1cc2c(=O)[nH]ccc2cc1O[C@H]1CC[C@H](NC(=O)CC2CCNCC2)CC1` [Compound 29, N-[4-(7-Methyl-1-oxo-1,2-dihydro-isoquinolin-6-yloxy)-trans-cyclohexyl]-2-piperidin-4-yl-acetamide] cannot be ordered by pIC50: no less than 6.00 for the first, 5.00 to 6.00 for the second.

`Cc1cc2c(=O)[nH]ccc2cc1O[C@H]1CC[C@H](NC(=O)CCC2CCNCC2)CC1` [Compound 28, N-[4-(7-Methyl-1-oxo-1,2-dihydro-isoquinolin-6-yloxy)-trans-cyclohexyl]-3-piperidin-4-yl-propionamide] gave a pIC50 of 5.00 to 6.00.
